The text below walks through data of paper PMC5381194, “On-chip in vitro cell-network pre-clinical cardiac toxicity using spatiotemporal human cardiomyocyte measurement on a chip” (Scientific Reports, 2014).

Series [1] relates to human embryonic stem cell-derived cardiomyocyte cluster (hES-CMC). Conditions: for Arrest (%) / Fib-like (%): human, 10 min.
Details of series [2]: method as in references and pharmaceutical attachments. The note with it: clinical report; effective therapeutic plasma concentration; ref references and pharmaceutical attachments; cited from earlier work.
For series [3] the following is noted: clinical VT/TdP risk compiled from the literature; ref literature; cited from earlier work.
The subject of series [4] is human embryonic stem cell-derived cardiomyocyte cluster (hES-CMC). Put plainly: On-chip MEA field potential recording of hCM clusters (temporal FPD and STVFPD). Conditions: for Score (On-chip MEA system, VT/TdP risk): more than 1.9-fold of STVFPD is the border of high risk of VT/TdP; for FPD (ratio) / STVFPD (ratio): 10 μM (Ref. dose ca. 10^2 × CMAX), ratio against the control, mean ± S.E.

A further series concerns the target hERG (Homo sapiens, UniProt Q12809). Nature of the series: in vitro. The note with it: pH 7.4. On the procedure:
Supplementary Explanation of Methods [in online]
Measurement of potassium (K+) current by patch clamp in hERG expressing CHO-K1 cells A patch clamp glass electrode was filled with internal solution (KCl: 130 mM, MgCl2: 1 mM, EGTA: 5 mM, MgATP: 5 mM, HEPES: 10 mM, pH 7.20). The electrode was attached to a patch clamp headstage holder and the tip of the electrode was brought into contact with the cell membrane with a micromanipulator under the microscope. Slight negative pressure from suction was created inside the electrode and the patch clamp system AXOPATCH 200B (Axon Instruments) and Clampex 9.2 was used to obtain a measured membrane resistance value (R-memb) greater than 20 megohms. The resting membrane potential was set at -80 mV just to wait to obtain R-memb greater than 1 gigaohms. Then to make whole-cell clamp mode, a strong suction was applied to rupture the cell membrane under the electrode. Cell capacitance and series resistance were compensated. The stimulation protocol (holding potential: -80 mV, depolarization pulse: +50 mV, for 2 s, repolarization pulse: -40 mV, for 2 s, pulse frequency:
0.067 Hz) was applied and the corresponding current was recorded. After the current waveform became stable, the application solutions were added cumulatively from the lowest concentration.
The cells were exposed to each concentration for 5 minutes and washed with Tyrode solution […]
pH 7.40) to observe the recovery after the exposure to the highest concentration. All experiments (n=3) were carried out at room temperature. The cells were perfused with Tyrode solution at the rate of 2.5 ml/min through the experiment as the background flow. The test compound was added to the cells directly via a pipette set nearby the cells at the rate of 350-400 µl/min.
Percentage change from pre-application values in tail peak current (% inhibition) was calculated […]
application/average of the consecutive 4 currents just before the start of the first application (the lowest one)] × 100. The dose levels were selected to describe the dose response curve. The maximum concentration was set to at least approximately 30~100 times its effective therapeutic plasma concentration in consideration of the solubility. […]

Series [5] has as its system guinea pig right ventricular papillary muscle. Put plainly: APD assay: action potential recording in guinea pig right ventricular papillary muscle. The note with it: relative ratio against the control, mean. On the procedure: After the current waveform
(n=3) were carried out at room temperature. The cells were perfused with Tyrode solution at the […]
lowest one)] × 100. […] The […]
plasma concentration in consideration of the solubility. […]
(§1) megohms, which was coupled to an Ag-AgCl bath electrode and connected to a microelectrode […]
(§2) amplifier (MEZ-8300, Nihon Koden). […]
(§3) computer system (WinCAPA1.6.6.Aui, Physio-Tech). The components of the action potential analyzed by the computer system are: resting membrane potential (RMP), action potential amplitude (APA), overshoot (OS), action potential duration at 30%, 50% and 90% of repolarization (APD30, APD50 and APD90, respectively) and maximum rate of rising phase (V max = dV/dt max). After an equilibration period for at least one hour, the test compound was added to the organ bath at increasing cumulative concentrations. The administration volume and rate was 20, 40, 140 µl/20 ml organ bath and 1 s/dose. Cardiac action potentials were recorded before and 30 minutes after the exposure of the test compound at each concentration.
(§4) Monophasic action potential duration (MAPD) measurements in isolated Langendorff-perfused female rabbit heart
(§5) Female NZW rabbit were anesthetized by an intravenous injection of thiopental (30 mg/kg) and heparin (500 U/kg). Then the heart was quickly removed and its aorta was cannulated, the bundle of His was sectioned, for perfusion of the coronary artery according to the Langendorff method with constant pressure (initial perfusion pressure: 60-70 mmHg). The heart was perfused at […]
KCl: 4.7 mM, CaCl2: 2.5 mM, MgSO4: 1.2 mM, KH2PO4: 1.2 mM, NaHCO3: 25 mM, glucose:
Two electrocardiogram (ECG) […]
electrodes were held lightly against the epicardium, the positive one on the left ventricle, the […]

Series [6] deals with isolated Langendorff-perfused female rabbit heart. Nature of the series: MAPD measurement in isolated Langendorff-perfused female rabbit heart. Conditions: relative ratio against the control, mean.
Excerpt: as §1, §2, §3
The dose levels were selected to describe the dose response curve.
as §4, §5

Where [7] appears, read: hCM clusters, 10 μM, ratio of lethally abnormal events.

Where two headings read alike, the source gives them in different places.

A word on the inhibition: it is the drop in the measured response relative to a control, in per cent. Higher therefore signals a response far below the control.

Chain of hERG (Q12809 whole entry): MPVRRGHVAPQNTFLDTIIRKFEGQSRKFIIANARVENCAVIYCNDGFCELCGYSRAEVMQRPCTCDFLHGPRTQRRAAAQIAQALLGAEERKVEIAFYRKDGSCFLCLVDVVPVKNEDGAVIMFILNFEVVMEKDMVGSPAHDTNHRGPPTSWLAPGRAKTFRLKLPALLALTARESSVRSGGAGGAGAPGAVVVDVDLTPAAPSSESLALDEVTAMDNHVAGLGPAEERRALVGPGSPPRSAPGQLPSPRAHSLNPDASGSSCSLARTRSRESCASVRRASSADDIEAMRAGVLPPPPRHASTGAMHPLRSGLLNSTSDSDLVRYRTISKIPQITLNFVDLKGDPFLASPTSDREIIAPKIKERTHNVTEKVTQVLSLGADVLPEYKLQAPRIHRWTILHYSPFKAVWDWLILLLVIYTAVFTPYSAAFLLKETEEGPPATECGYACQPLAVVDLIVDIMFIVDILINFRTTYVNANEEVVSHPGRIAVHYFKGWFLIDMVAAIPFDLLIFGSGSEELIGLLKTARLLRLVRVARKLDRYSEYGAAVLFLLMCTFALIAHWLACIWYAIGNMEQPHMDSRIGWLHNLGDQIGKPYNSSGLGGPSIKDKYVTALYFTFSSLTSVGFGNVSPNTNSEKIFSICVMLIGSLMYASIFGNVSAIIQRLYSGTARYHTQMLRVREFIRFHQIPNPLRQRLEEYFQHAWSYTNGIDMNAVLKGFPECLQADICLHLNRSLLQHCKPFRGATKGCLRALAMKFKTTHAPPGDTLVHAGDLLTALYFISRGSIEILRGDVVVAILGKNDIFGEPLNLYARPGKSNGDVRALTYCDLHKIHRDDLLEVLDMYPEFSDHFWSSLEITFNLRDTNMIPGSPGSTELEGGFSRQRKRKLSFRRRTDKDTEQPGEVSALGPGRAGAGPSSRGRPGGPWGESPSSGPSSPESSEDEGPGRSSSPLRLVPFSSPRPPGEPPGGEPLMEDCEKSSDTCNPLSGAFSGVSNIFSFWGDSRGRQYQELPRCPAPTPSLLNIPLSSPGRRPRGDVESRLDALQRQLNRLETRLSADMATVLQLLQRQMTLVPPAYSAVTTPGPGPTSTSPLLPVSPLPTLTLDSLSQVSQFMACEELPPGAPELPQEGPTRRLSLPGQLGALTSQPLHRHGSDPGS

Take `CC(C)(C)c1ccc(C(O)CCCN2CCC(C(O)(c3ccccc3)c3ccccc3)CC2)cc1` (centres unmarked) [Terfenadine]: in series [1] (10 µM), the “Arrest (%)” value is 21% and the “Fib-like (%)” value was 3%. Besides, the Cmax in series [2] was 0.22 µM. The “VT/VF/TdP (Clinical report)” value in series [3] was “(+)”. For the same compound, in series [4] (0.3 μM, even at 72 h), the “STVFPD in hCM clusters, long-term observation” value is reported as “no significant increase”. Further, the “time at which FPD reached the risk level” value in series [4] (0.3 μM, hCM clusters, long-term observation) came to 24 h. In series [4] (0.3 μM, observed 8 h after application), the “FPD in hCM clusters, long-term observation” value is reported as “gradual increase”. Further, in series [4], the “Score (On-chip MEA system, VT/TdP risk)” value was “High”.
For `CC(C)(C)c1ccc(C(=O)CCCN2CCC(OC(c3ccccc3)c3ccccc3)CC2)cc1` [Ebastine], in series [1] (1 µM), the “Arrest (%)” value is listed as 0% and the “Fib-like (%)” value is given as 0%. The Cmax in series [2] is 0.16 µM. For the same compound, the “Score (On-chip MEA system, VT/TdP risk)” value in series [4] is “Low”.
For the compound `COc1c(N2C[C@@H]3CCCN[C@@H]3C2)c(F)cc2c(=O)c(C(=O)O)cn(C3CC3)c12` [Moxifloxacin], in series [1] (100 µM), the “Arrest (%)” value is recorded as 0% and the “Fib-like (%)” value was 0%. Further, the Cmax in series [2] is 10 µM.
Consider `COc1ccc(CCN2CCC(Nc3nc4ccccc4n3Cc3ccc(F)cc3)CC2)cc1` [Astemizole], for which, in series [1] (0.1 µM), the “Arrest (%)” value is given as 0% and the “Fib-like (%)” value is 14%. Further, the Cmax in series [2] is 0.002 µM. Further, the “VT/VF/TdP (Clinical report)” value in series [3] is on record as “(+)”. Also, in series [4], the “Score (On-chip MEA system, VT/TdP risk)” value is “High”.
Regarding `CN(C)CCCC1(c2ccc(F)cc2)OCc2cc(C#N)ccc21` (centres unmarked) [Citalopram], at 10 µM the inhibition against hERG was 83.5%. The “APD90 prolongation in papillary musole (ratio)” value in series [5] (10 μM) worked out at 0.95 ratio. Further, in series [1] (10 µM), the “Arrest (%)” value was 12% and the “Fib-like (%)” value is recorded as 0%. For the same compound, in series [2], the Cmax is 0.27 µM. Besides, in series [3], the “VT/VF/TdP (Clinical report)” value is “(+)”. In series [4] (hCM clusters), the “FPD (ratio)” value turned out to be 0.86 ± 0.04 ratio and the “STVFPD (ratio)” value stood at 2.75 ± 0.78 ratio. Also, the “Score (On-chip MEA system, VT/TdP risk)” value in series [4] is “High”.
`NC(N)=Nc1nc(CSCCC(N)=NS(N)(=O)=O)cs1` [Famotidine]: in series [1] (10 µM), the “Arrest (%)” value is 0% and the “Fib-like (%)” value was 0%. The Cmax in series [2] is 0.19 µM. For the same compound, the “Score (On-chip MEA system, VT/TdP risk)” value in series [4] is “Low”.
In turn, `COc1cc(N)c(Cl)cc1C(=O)NC1CCN(CCCOc2ccc(F)cc2)CC1OC` (centres unmarked) [Cisapride] showed an inhibition at 5 min, 1 µM on hERG (CHO-K1 cells expressing hERG) of 90.6%. For the same compound, the “APD90 prolongation in papillary musole (ratio)” value in series [5] (1 μM) stood at 1.14 ratio. In addition, the “MAPD90 prolongation in Langendorff hearts (ratio)” value in series [6] (1 μM) amounted to 1.37 ratio. Further, in series [1] (10 µM), the “Arrest (%)” value worked out at 0% and the “Fib-like (%)” value came to 4%. Further, the Cmax in series [2] is 0.18 µM. Moreover, the “VT/VF/TdP (Clinical report)” value in series [3] is “(+)”. In addition, in series [4] (hCM clusters), the “FPD (ratio)” value amounted to 1.37 ± 0.07 ratio and the “STVFPD (ratio)” value turned out to be 3.82 ± 0.85 ratio. In addition, in series [4], the “Score (On-chip MEA system, VT/TdP risk)” value was “High”.
On to `CC(C)NCC(O)c1ccc(NS(C)(=O)=O)cc1` (racemic) [DL-sotalol], for which, at hERG (CHO-K1 cells expressing hERG), the inhibition at 5 min, 30 µM was determined as 19.2%. In series [1], the “Score (On-chip MEA system, VT/TdP risk)” value was “High”. In series [1] (1000 µM), the “Arrest (%)” value worked out at 5% and the “Fib-like (%)” value came to 0%. Also, the Cmax in series [2] was 2.5 µM.
As for `CSc1ccc2c(c1)N(CCC1CCCCN1C)c1ccccc1S2` (centres unmarked) [Thioridazine], in series [1] (10 µM), the “Arrest (%)” value turned out to be 0% and the “Fib-like (%)” value was found to be 0%. In addition, in series [2], the Cmax is 1.8 µM. In series [3], the “VT/VF/TdP (Clinical report)” value is “(+)”. Besides, the “Score (On-chip MEA system, VT/TdP risk)” value in series [4] was “High”.
At hERG (CHO-K1 cells expressing hERG), `C[C@H]1COc2c(N3CCN(C)CC3)c(F)cc3c(=O)c(C(=O)O)cn1c23` [Levofloxacin] came in with an inhibition at 5 min, 300 µM of 13.2%. In series [1] (1000 µM), the “Arrest (%)” value came out at 40% and the “Fib-like (%)” value is reported as 4%. In addition, the Cmax in series [2] is 22 µM. Besides, the “Score (On-chip MEA system, VT/TdP risk)” value in series [4] is recorded as “Low”.
Take `COc1ccc([C@@H]2Sc3ccccc3N(CCN(C)C)C(=O)[C@@H]2OC(C)=O)cc1` [Diltiazem]: in series [1] (1 µM), the “Arrest (%)” value came out at 50% and the “Fib-like (%)” value stood at 0%. Further, the Cmax in series [2] is 0.11 µM. Also, the “Score (On-chip MEA system, VT/TdP risk)” value in series [4] is “Low”.
At hERG (CHO-K1 cells expressing hERG), `O=C(NCC1CCCCN1)c1cc(OCC(F)(F)F)ccc1OCC(F)(F)F` (centres unmarked) [Flecainide] registered an inhibition at 5 min, 10 µM of 88.3%. In addition, in series [1] (100 µM), the “Arrest (%)” value worked out at 13% and the “Fib-like (%)” value is on record as 0%. Moreover, the Cmax in series [2] was 0.43 µM. Further, the “Score (On-chip MEA system, VT/TdP risk)” value in series [4] was “High”.
In turn, `CC(C)COCC(CN(Cc1ccccc1)c1ccccc1)N1CCCC1` (centres unmarked) [Bepridil] had an inhibition at 5 min, 0.3 µM on hERG (CHO-K1 cells expressing hERG) of 61.9%. Moreover, the “APD90 prolongation in papillary musole (ratio)” value in series [5] (10 μM) came to 1.02 ratio. Also, in series [6] (10 μM), the “MAPD90 prolongation in Langendorff hearts (ratio)” value stood at 1.12 ratio. In series [1] (10 µM), the “Arrest (%)” value is reported as 5% and the “Fib-like (%)” value was 5%. In series [2], the Cmax is 0.3 µM. In addition, in series [3], the “VT/VF/TdP (Clinical report)” value is recorded as “(+)”. In series [4] (hCM clusters), the “FPD (ratio)” value is on record as 1.21 ± 0.12 ratio and the “STVFPD (ratio)” value is on record as 4.74 ± 2.26 ratio. Further, in series [4], the “Score (On-chip MEA system, VT/TdP risk)” value is given as “High”.
On to `Fc1ccc([C@@H]2CCNC[C@H]2COc2ccc3c(c2)OCO3)cc1` [Paroxetin], for which the Cmax in series [2] was 0.07 µM. Also, in series [4] (hCM clusters), the “FPD (ratio)” value is 1.30 ± 0.06 ratio and the “STVFPD (ratio)” value turned out to be 2.27 ± 0.41 ratio. Also, in series [4] (setting [7]), the “Arrest (%)” value was found to be 13% and the “Fib-like (%)” value came out at 0%. In addition, in series [4], the “Score (On-chip MEA system, VT/TdP risk)” value is recorded as “High”.
